Source: patent US8895597B2, “Combination of local temozolomide with local BCNU” (priority 2010, dated 2014)

Columns and labels:
9L gliosarcoma = experiment: Efficacy of local TMZ, local BCNU and XRT, intracranial 9L gliosarcoma (second experiment); format: in vivo, F344 rats; settings: without XRT
Source text: TMZ, provided by the National Institute of Health/National Cancer Institute, (Bethesda, Md.), was incorporated into a polyanhydride CPP:SA 20:80 polymer at concentrations of 50% (w/w) by methods as described by Tamargo, et al., Cancer Res. 53(2):329-333 (1993). BCNU was purchased from the Johns Hopkins Hospital pharmacy (Bristol Meyers; Princeton, N.J.) and polymers were made at concentrations of 3.8% (w/w) in a similar fashion. The polymers were then pressed into discs weighing approximately 10 mg. Blank polymers (100% CPP:SA) were made in an analogous manner. In vitro release kinetics, biodistribution studies, and studies to determine maximally tolerated dose of BCNU and TMZ polymers as described by Brem, et al., Cancer Chemother. Pharmacol. 60(5):643-650 (2007); Tamargo, et al., Cancer Res. 53(2):329-333 (1993); and Grossman, et al., J. Neurosurg. 76(4):640-647 (1992). Polymers were stored at −20° C. until use.
The 9L gliosarcoma was obtained from Dr. M. Barker at the University of California-San Francisco Brain Tumor Research Center (San Francisco, Calif.). […]
To determine the efficacy of the combination of locally delivered TMZ with locally delivered BCNU and XRT, tumor-bearing rats were randomized into groups of sixteen for treatment on post-operative Day 5. […] Any animals appearing moribund were sacrificed and date of death recorded. […]

F98 glioma = experiment: Efficacy of local TMZ, local BCNU and XRT, intracranial F98 glioma (resistant to alkylating agents); format: in vivo, F344 rats; settings: without XRT

Compound: Cn1nnc2c(C(N)=O)ncn2c1=O [50 mg/kg oral TMZ, temozolomide]
- Long-term survivors (%) (9L gliosarcoma; alive at Day 120): 0%
- Median survival (days) (9L gliosarcoma; range in brackets): 24 (14-33) days
- Long-term survivors (%) (F98 glioma; alive at Day 120): 0%
- Median survival (days) (F98 glioma; range in brackets): 15 (13-18) days
